Data as given in ChEMBL document CHEMBL4602617, “Discovery and optimization of heteroaryl piperazines as potent and selective PI3Kδ inhibitors” (Bioorg Med Chem Lett, 2020).

Assays:
[1] = Clearance in human liver microsomes; type: ADME, Microsome; conditions: read-out: CLH
[2] = molecular target: Sodium channel protein type 5 subunit alpha (Homo sapiens, UniProt Q14524); assay: Inhibition of Nav1.5 (unknown origin)
Activin receptor type-1B = Activin receptor type-1B (Homo sapiens, UniProt P36896); assay: Inhibition of recombinant GST-tagged human ALK4 (150 to 505 residues) expressed in baculovirus expression system using Ser/Thr-16 peptide as substrate incubated for 60 mins in presence of ATP by Z'-LYTE assay
[3] = molecular target: Vasopressin V2 receptor (Homo sapiens) (UniProt P30518); assay: Displacement of [3H]-(Arg8)-Vasopressin from recombinant full length human V2 receptor expressed in CHO-K1 cells at 10 uM after 120 mins by radiometric scintillation analysis relative to control; type: cell-based
Vasopressin V2 receptor (Homo sapiens), sequence (P30518 whole entry): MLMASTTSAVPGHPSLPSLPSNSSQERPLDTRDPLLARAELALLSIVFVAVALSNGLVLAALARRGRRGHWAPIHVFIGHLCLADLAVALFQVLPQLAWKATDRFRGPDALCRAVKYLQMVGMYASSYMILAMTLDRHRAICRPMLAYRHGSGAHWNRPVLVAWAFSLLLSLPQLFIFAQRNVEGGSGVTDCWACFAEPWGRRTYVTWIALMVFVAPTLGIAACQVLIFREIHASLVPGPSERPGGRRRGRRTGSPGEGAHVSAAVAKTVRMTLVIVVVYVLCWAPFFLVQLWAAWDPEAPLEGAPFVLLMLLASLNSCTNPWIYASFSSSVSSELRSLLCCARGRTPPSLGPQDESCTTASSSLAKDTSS

Rattus norvegicus = species: Rattus norvegicus; assay: Inhibition of rat P2Y receptor at 10 uM relative to control
Homo sapiens = species: Homo sapiens; assay: Inhibition of human nicotinic acetylcholine receptor at 10 uM relative to control
[4] = molecular target: Neurotensin receptor type 1 (Homo sapiens) (UniProt P30989); assay: Displacement of [125I]neurotensin from NT1 receptor in human HEK293 EBNA cell membranes at 10 uM measured after 45 mins by radiometric scintillation analysis relative to control
Neurotensin receptor type 1 (Homo sapiens), sequence (P30989 whole entry): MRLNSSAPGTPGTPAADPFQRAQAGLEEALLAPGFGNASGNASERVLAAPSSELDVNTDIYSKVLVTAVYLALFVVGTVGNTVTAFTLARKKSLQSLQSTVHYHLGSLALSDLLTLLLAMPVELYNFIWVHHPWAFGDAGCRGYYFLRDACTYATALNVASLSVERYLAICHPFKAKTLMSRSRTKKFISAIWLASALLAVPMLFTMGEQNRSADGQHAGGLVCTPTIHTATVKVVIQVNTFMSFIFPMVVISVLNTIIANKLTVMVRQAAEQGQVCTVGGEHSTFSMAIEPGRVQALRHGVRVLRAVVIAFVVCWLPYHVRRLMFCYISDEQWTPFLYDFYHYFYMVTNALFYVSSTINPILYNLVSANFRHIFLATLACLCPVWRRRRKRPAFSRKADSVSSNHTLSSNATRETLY

[5] = molecular target: Melanocyte-stimulating hormone receptor (Homo sapiens) (UniProt Q01726); assay: Displacement of [125I]NDP-alpha-MSH from full length human recombinant MC1 receptor expressed in CHO-K1 cells at 10 uM measured after 120 mins by radiometric scintillation analysis relative to control; type: cell-based
[6] = molecular target: Cannabinoid receptor 1 (Homo sapiens) (UniProt P21554); assay: Inhibition of human CB1 receptor at 10 uM relative to control
Cannabinoid receptor 1 (Homo sapiens), sequence (P21554 whole entry): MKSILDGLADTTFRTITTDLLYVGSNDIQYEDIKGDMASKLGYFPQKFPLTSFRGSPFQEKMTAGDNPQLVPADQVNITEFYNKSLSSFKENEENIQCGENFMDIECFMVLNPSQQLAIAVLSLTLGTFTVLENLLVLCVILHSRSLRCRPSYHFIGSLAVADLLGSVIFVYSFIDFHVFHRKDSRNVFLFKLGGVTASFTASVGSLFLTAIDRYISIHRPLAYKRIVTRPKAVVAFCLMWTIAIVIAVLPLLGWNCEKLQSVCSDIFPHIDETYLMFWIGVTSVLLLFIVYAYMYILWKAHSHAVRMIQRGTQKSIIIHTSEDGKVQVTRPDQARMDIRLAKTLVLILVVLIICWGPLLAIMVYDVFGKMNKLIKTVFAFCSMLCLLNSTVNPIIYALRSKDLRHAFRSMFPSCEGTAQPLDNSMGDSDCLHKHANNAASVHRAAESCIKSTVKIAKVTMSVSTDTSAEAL

[7] = molecular target: Type-1 angiotensin II receptor (Homo sapiens) (UniProt P30556); assay: Displacement of [125I][Sar1,Ile8]-AT-II from full length human recombinant AT1 receptor expressed in CHOK1 cells at 10 uM measured after 120 mins by radiometric scintillation analysis relative to control; type: cell-based; conditions: CHO-K1
Type-1 angiotensin II receptor (Homo sapiens), sequence (P30556 whole entry): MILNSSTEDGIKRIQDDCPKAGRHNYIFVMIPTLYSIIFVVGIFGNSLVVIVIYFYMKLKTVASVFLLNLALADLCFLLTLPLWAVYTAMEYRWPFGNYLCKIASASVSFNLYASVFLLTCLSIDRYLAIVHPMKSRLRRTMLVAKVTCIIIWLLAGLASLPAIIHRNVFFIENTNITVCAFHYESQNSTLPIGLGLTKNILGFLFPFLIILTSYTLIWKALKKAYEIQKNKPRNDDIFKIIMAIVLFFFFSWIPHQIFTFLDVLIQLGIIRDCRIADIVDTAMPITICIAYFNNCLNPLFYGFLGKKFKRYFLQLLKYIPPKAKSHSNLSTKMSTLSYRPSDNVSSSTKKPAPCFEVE

[8] = molecular target: Cathepsin G (Homo sapiens) (UniProt P08311); assay: Inhibition of endogenous human cathepsin G at 10 uM using Suc-Ala-Ala-Pro-Phe-AMC as substrate after 30 mins by spectrophotometric analysis relative to control
[9] = molecular target: Casein kinase I isoform delta (Homo sapiens, UniProt P48730); assay: Inhibition of recombinant human full-length GST-tagged CSNK1D expressed in baculovirus expression system using FRET-labeled Ser/Thr 11 peptide as substrate measured after 1 hr in presence of ATP by Z'-lyte assay
[10] = molecular target: Serine/threonine-protein kinase DCLK2 (Homo sapiens, UniProt Q8N568); assay: Inhibition of recombinant full length human GST-tagged DCAMKL2 expressed in baculovirus expression system using serine/threonine-17 peptide as substrate incubated for 60 mins in presence of ATP by Z'-LYTE assay
Ephrin type-A receptor 5 = Ephrin type-A receptor 5 (Homo sapiens, UniProt P54756); assay: Inhibition of recombinant human GST-tagged EPHA5 cytoplasmic domain expressed in baculovirus expression system using tyrosine-01 peptide as substrate incubated for 60 mins in presence of ATP by Z'-Lyte assay
[11] = molecular target: Fibroblast growth factor receptor 3 (Homo sapiens, UniProt P22607); assay: Inhibition of recombinant His-tagged human FGFR3 (399 to 806 residues) cytoplasmic domain expressed in baculovirus expression system using Tyr 04 peptide as substrate after 1 hr in presence of ATP by Z'-LYTE assay
Fibroblast growth factor receptor 3, sequence (P22607 whole entry, the tested form may be a part): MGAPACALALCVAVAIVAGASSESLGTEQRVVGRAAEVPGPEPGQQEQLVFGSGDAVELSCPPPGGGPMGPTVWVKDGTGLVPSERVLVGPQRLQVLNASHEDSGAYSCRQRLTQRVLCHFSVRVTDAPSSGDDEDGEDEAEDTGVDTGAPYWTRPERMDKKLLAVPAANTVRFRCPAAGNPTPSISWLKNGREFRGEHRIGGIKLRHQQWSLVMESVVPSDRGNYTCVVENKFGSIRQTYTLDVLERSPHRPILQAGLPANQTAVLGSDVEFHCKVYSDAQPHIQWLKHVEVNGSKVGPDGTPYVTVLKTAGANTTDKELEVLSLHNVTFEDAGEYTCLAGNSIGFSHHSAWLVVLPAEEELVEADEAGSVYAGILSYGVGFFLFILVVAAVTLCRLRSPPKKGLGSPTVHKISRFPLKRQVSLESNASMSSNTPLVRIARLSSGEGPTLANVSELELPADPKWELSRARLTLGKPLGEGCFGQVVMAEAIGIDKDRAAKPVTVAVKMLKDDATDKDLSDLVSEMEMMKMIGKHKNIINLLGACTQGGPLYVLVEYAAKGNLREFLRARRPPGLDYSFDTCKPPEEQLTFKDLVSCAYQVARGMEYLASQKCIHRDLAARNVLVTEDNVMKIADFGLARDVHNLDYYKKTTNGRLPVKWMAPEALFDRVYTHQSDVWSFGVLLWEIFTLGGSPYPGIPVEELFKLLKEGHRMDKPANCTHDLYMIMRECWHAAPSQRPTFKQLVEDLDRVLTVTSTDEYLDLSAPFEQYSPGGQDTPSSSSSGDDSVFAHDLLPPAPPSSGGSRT

[12] = molecular target: Tyrosine-protein kinase Fyn (Homo sapiens, UniProt P06241); assay: Inhibition of recombinant full length C-terminal His-tagged human FYN cytoplasmic domain expressed in baculovirus expression system using fluorophore-labeled tyrosine-2 peptide as substrate after 1 hr in presence of ATP by Z'-Lyte assay
[13] = molecular target: Tyrosine-protein kinase JAK2 (Homo sapiens, UniProt O60674); assay: Inhibition of human recombinant GST tagged JAK2 catalytic domain expressed in baculovirus expression system using Tyr6 peptide as substrate measured after 1 hr in presence of ATP by Z'-LYTE assay
[14] = molecular target: Tyrosine-protein kinase JAK2 (Homo sapiens, UniProt O60674, V617F); assay: Inhibition of human recombinant GST tagged JAK2 V617F mutant catalytic domain expressed in baculovirus expression system using Tyr6 peptide as substrate measured after 1 hr in presence of ATP by Z'-LYTE assay
[15] = molecular target: Mast/stem cell growth factor receptor Kit (Homo sapiens, UniProt P10721, T670I); assay: Inhibition of recombinant human His-tagged KIT (544 to 976 residues) harboring T670I mutant expressed in baculovirus expression system using tyrosine-6 peptide as substrate incubated for 60 mins in presence of ATP by Z'-LYTE assay
[16] = molecular target: Mitogen-activated protein kinase 1 (Homo sapiens, UniProt P28482); assay: Inhibition of recombinant full length human GST-tagged ERK2 expressed in Escherichia coli expression system using serine/threonine-3 peptide as substrate incubated for 60 mins in presence of ATP by Z'-LYTE assay
[17] = molecular target: Mitogen-activated protein kinase 13 (Homo sapiens, UniProt O15264); assay: Inhibition of recombinant full length human His-tagged p38delta expressed in baculovirus expression system using serine/threonine-3 peptide as substrate incubated for 60 mins in presence of ATP by Z'-LYTE assay
[18] = molecular target: MAP kinase-interacting serine/threonine-protein kinase 1 (Homo sapiens, UniProt Q9BUB5); assay: Inhibition of recombinant full length human GST-tagged MKNK1 expressed in insect cells using serine/threonine-7 peptide as substrate incubated for 60 mins in presence of ATP by Z'-LYTE assay
MAP kinase-interacting serine/threonine-protein kinase 1, sequence (Q9BUB5 whole entry): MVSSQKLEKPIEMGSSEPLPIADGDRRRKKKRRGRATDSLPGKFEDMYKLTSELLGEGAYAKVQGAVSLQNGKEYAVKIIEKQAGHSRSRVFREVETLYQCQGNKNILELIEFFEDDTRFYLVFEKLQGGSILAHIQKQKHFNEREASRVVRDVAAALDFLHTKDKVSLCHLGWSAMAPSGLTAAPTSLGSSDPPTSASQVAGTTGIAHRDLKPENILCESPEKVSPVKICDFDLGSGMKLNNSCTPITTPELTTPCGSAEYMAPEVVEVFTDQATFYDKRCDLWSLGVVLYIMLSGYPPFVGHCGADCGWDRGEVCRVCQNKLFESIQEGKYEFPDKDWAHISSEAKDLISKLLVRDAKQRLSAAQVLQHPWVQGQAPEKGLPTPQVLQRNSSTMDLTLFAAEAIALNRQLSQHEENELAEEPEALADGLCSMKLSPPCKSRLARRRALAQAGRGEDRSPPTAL

[19] = molecular target: Serine/threonine-protein kinase Nek7 (Homo sapiens, UniProt Q8TDX7); assay: Inhibition of NEK7 (unknown origin) by Z'LYTE assay
[20] = molecular target: Serine/threonine-protein kinase Nek9 (Homo sapiens, UniProt Q8TD19); assay: Inhibition of recombinant human GST-tagged NEK9 catalytic domain (347 to 732 residues) expressed in baculovirus expression system using serine/threonine-7 peptide as substrate incubated for 60 mins in presence of ATP by Z'-LYTE assay
[21] = molecular target: Platelet-derived growth factor receptor alpha (Homo sapiens, UniProt P16234, V561D); assay: Inhibition of recombinant human GST-tagged PDGFRalpha V561D mutant cytoplasmic domain expressed in baculovirus expression system using tyrosine-4 peptide as substrate incubated for 60 mins in presence of ATP by Z'-LYTE assay
[22] = molecular target: Protein kinase C zeta type (Homo sapiens, UniProt Q05513); assay: Inhibition of recombinant full length human PKCzeta expressed in baculovirus expression system using serine/threonine-7 peptide as substrate incubated for 60 mins in presence of ATP by Z'-LYTE assay
Protein kinase C zeta type, sequence (Q05513 whole entry, the tested form may be a part): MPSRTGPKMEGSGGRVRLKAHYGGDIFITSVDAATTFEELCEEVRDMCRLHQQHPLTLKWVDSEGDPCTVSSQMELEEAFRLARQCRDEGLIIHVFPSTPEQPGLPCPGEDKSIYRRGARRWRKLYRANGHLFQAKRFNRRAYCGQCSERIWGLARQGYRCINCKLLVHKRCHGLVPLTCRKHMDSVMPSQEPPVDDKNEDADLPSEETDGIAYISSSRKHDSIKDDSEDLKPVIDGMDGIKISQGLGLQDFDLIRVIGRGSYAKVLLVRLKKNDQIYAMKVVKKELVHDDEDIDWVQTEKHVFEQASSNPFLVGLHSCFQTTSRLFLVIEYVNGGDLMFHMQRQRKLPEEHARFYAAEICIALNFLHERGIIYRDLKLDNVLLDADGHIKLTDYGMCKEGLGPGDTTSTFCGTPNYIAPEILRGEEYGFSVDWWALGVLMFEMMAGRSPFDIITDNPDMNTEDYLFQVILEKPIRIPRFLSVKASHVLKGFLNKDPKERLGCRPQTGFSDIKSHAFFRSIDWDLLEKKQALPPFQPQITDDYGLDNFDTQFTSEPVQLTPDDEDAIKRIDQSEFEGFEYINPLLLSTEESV

[23] = molecular target: Rho-associated protein kinase 1 (Homo sapiens, UniProt Q13464); assay: Inhibition of recombinant human GST-tagged ROCK1 catalytic domain expressed in baculovirus expression system using serine/threonine-7 peptide as substrate incubated for 60 mins in presence of ATP by Z'-LYTE assay
Rho-associated protein kinase 1, sequence (Q13464 whole entry, the tested form may be a part): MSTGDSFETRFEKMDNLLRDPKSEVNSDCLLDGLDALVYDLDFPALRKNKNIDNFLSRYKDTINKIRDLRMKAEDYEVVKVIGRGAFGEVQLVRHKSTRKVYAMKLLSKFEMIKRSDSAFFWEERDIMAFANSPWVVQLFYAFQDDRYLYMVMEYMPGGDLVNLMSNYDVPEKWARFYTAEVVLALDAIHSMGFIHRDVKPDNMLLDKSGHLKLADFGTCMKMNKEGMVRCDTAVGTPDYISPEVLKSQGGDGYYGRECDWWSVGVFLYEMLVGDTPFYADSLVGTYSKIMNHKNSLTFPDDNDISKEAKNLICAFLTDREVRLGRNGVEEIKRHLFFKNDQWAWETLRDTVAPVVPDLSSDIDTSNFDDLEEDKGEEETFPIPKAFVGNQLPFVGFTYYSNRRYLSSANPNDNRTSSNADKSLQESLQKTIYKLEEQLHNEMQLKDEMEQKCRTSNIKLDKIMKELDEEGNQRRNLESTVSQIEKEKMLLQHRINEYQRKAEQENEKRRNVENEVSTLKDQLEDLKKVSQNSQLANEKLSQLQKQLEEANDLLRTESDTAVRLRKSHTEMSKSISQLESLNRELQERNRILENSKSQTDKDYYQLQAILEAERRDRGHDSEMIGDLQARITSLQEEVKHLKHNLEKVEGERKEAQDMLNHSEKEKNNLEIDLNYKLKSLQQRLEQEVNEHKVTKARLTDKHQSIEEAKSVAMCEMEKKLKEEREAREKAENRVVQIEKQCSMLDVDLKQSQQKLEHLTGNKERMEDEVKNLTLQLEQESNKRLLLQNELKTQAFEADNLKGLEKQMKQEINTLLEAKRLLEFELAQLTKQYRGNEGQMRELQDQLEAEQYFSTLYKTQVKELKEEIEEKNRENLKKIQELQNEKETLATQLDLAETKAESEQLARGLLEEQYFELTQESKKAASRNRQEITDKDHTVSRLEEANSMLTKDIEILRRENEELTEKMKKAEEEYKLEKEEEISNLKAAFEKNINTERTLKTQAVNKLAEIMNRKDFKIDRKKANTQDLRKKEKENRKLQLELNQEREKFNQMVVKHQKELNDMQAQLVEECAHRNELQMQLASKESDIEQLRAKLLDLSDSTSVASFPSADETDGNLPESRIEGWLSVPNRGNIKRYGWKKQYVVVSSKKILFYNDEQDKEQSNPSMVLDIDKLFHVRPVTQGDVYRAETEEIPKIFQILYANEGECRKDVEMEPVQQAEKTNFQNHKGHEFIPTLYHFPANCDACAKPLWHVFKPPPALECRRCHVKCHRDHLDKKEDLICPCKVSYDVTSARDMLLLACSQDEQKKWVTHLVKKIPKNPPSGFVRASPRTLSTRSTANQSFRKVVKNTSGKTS

Which CLint scaled [1] does the source give for `C[C@@H]1C[C@H]1C(=O)N1CCN(c2cnc(C#N)c(-c3cnn(C)c3)n2)C[C@H]1C` here?
The CLint scaled was less than 16 mL/min/kg.

What about the IC50 [2] of the same molecule?
Its IC50 is greater than 30 µM.

And the IC50 (Activin receptor type-1B)?
The IC50 was greater than 100 µM.

And the inhibition [3]?
The inhibition was 1%.

And the inhibition (Rattus norvegicus)?
Its inhibition is 34%.

And the inhibition (Homo sapiens)?
The inhibition was 10%.

And the inhibition [4]?
The inhibition was 1%.

And the inhibition [5]?
The inhibition was 3%.

And the inhibition [6]?
The inhibition was -1%.

What about the inhibition [7] of the same molecule?
The inhibition was -4%.

And the inhibition [8]?
The inhibition was 6%.

And the IC50 [9]?
Its IC50 is greater than 100 µM.

And the IC50 [10]?
The IC50 was greater than 100 µM.

What about the IC50 (Ephrin type-A receptor 5) of the same molecule?
The IC50 was greater than 100 µM.

And the IC50 [11]?
Its IC50 is greater than 100 µM.

What about the IC50 [12] of the same molecule?
Its IC50 is greater than 100 µM.

And the IC50 [13]?
Its IC50 is greater than 100 µM.

What about the IC50 [14] of the same molecule?
Its IC50 is greater than 100 µM.

And the IC50 [15]?
Its IC50 is greater than 100 µM.

And the IC50 [16]?
Its IC50 is greater than 100 µM.

What about the IC50 [17] of the same molecule?
The IC50 was greater than 100 µM.

What about the IC50 [18] of the same molecule?
Its IC50 is greater than 100 µM.

And the IC50 [19]?
The IC50 was greater than 100 µM.

And the IC50 [20]?
Its IC50 is greater than 100 µM.

And the IC50 [21]?
The IC50 was greater than 100 µM.

And the IC50 [22]?
The IC50 was greater than 100 µM.

And the IC50 [23]?
Its IC50 is greater than 100 µM.
